Results reported in patent US9884063B2, “Amido-substituted azole compounds” (Bayer Pharma Aktiengesellschaft, priority 2014, dated 2018).
pIC50: −log10 of the molar value.

Tests used:
[1] = molecular target: T1, TNKS1 (Homo sapiens, UniProt O95271); test: TNKS1 Assay 1 (TNKS1 Histone Ribosylation Assay Kit, biotin-labeled NAD+); type: biochemical; conditions: chemiluminescent readout, 384 well
T1 sequence (O95271 1-1327): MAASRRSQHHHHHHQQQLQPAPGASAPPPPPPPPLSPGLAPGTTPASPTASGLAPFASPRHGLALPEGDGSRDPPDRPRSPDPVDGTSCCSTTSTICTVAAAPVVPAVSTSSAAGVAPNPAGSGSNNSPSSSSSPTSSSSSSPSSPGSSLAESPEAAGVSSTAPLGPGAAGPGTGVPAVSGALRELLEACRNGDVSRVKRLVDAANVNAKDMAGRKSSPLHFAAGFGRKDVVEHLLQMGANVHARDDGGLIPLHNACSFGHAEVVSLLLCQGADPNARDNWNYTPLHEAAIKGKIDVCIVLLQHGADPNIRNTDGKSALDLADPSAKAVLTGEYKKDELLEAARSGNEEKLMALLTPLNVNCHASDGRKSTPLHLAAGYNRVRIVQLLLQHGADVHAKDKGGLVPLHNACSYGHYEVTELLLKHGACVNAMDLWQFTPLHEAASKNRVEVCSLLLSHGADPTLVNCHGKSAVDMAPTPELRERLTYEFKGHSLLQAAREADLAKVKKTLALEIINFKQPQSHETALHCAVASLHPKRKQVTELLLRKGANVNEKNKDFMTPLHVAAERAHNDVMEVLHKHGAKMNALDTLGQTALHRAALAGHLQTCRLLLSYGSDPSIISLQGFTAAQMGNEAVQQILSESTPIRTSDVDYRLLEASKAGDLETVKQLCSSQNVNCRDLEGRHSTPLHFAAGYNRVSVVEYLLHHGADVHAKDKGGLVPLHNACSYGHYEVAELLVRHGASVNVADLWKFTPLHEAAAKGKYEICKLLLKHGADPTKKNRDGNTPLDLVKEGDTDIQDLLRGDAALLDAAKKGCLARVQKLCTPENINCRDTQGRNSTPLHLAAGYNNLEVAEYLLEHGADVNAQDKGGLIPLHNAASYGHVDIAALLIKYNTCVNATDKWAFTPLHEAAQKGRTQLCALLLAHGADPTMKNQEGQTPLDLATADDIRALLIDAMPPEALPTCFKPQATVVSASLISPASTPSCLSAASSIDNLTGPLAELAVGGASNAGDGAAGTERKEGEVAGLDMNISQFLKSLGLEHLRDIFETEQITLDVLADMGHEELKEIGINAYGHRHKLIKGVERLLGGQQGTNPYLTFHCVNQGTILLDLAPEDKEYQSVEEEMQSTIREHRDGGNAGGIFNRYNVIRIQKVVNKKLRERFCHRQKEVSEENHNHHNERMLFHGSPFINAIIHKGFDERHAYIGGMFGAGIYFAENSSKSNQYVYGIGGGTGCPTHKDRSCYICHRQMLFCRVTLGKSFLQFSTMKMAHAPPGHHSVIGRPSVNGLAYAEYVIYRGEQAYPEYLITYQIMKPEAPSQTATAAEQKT
Procedure: The potency of the compounds according to the invention was assessed by applying an in vitro inhibition assay. The TNKS1 catalyzed NAD^+-dependent ribosylation of a suitable protein substrate was detected using a commercially available biotin/streptavidin binding based assay format [TNKS1 Histone Ribosylation Assay Kit (Biotin-labeled NAD+), Catalog #80579; BPS Bioscience, San Diego, USA]. Here, the incorporation of a biotin-labeled NAD+ during the TNKS1 catalyzed ribosylation reaction was detected with a streptavidin-HRP coupled chemi-luminescent readout. The intensity of the readout signal is proportional to the incorporated NAD^+. Inhibition of TNKS1 leads to a decreased incorporation of NAD^+ and consequently to a lower readout signal intensity. The concentration of a test compound which inhibits the enzyme activity by 50% (corresponds to half of the normed readout signal intensity) is reported as IC50.
The assay was conducted in a 384 well MTP format according to the manufacturer's protocol [bpsbioscience.com/poly-adp-ribose-polymerase/assay-kit/tnks1-histone-ribosylation-assay-kit-biotin-labeled-nad-80579 referencing: Brown, J. A., Marala, R. B. J. Pharmacol. Toxicol. Methods 2002 47:137-41] and using a BMG Pherastar MTP reader [BMG-Labtech, Offenburg, Germany].

[2] = molecular target: T1, TNKS1; test: Modified TNKS1 Assay 3 (BPS kit #80573, biotin-NAD+, 96 well); type: biochemical; conditions: human TNKS1, BPS kit #80573, 96 well
How it was run: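 Chemiluminescent assay of TNKS1-catalysed ribosylation of a protein substrate with biotin-labelled NAD+, detected via streptavidin-HRP; run per kit protocol. Inhibition lowers the signal, and IC50 is the compound concentration halving the normalised readout.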

Row | Compound | pIC50 ([1]; Table 1) | pIC50 ([1]; first table) | pIC50 [2]
1 | CNC(=O)c1nc[nH]c1C(=O)Nc1ccc(NC(=O)c2ccc(F)cc2)cc1 [Example 20, N^5-{4-[(4-fluorobenzoyl)amino]phenyl}-N^4-methyl-1H-imidazole-4,5-dicarboxamide] | 5.77 | 5.77 | –
2 | CNC(=O)c1nc[nH]c1C(=O)Nc1ccc(NC(=O)c2cc(OC)c(OC)cc2Cl)cc1 [Example 240, N^5-{4-[(2-chloro-4,5-dimethoxybenzoyl)amino]phenyl}-N^4-methyl-1H-imidazole-4,5-dicarboxamide] | – | – | 7.70
3 | CNC(=O)c1nc[nH]c1C(=O)Nc1ccc(NC(=O)c2ccc(Cl)cc2Cl)cc1 [Example 9, N^5-{4-[(2,4-dichlorobenzoyl)amino]phenyl}-N^4-methyl-1H-imidazole-4,5-dicarboxamide] | 6.96 | 6.96 | –
4 | CNC(=O)c1nc[nH]c1C(=O)Nc1ccc(NC(=O)c2c(F)cc(F)cc2Cl)cc1 [Example 118, N^5-{4-[(2-chloro-4,6-difluorobenzoyl)amino]phenyl}-N^4-methyl-1H-imidazole-4,5-dicarboxamide] | – | – | < 6.30
5 | CNC(=O)c1nc[nH]c1C(=O)Nc1ccc(NC(=O)c2ccc(OCCN3CCN(C)CC3)cc2Cl)cc1 [Example 28, N^5-[4-({2-chloro-4-[2-(4-methylpiperazin-1-yl)ethoxy]benzoyl}amino)phenyl]-N^4-methyl-1H-imidazole-4,5-dicarboxamide] | 7.15 | 7.15 | –
6 | CN(C)C(=O)c1nc[nH]c1C(=O)Nc1ccc(NC(=O)c2ccc(F)cc2Cl)cc1 [Example 24, N^5-{4-[(2-chloro-4-fluorobenzoyl)amino]phenyl}-N^4,N^4-dimethyl-1H-imidazole-4,5-dicarboxamide] | 6.55 | 6.55 | –
7 | CNC(=O)c1nc[nH]c1C(=O)Nc1ccc(NC(=O)c2c(-c3ccccc3)nn(C)c2Cl)cc1 [Example 17, N^5-(4-{[(5-chloro-1-methyl-3-phenyl-1H-pyrazol-4-yl)carbonyl]amino}phenyl)-N^4-methyl-1H-imidazole-4,5-dicarboxamide] | < 4.00 | ≤ 4.00 | –
8 | O=C(Nc1ccc(NC(=O)c2[nH]cnc2C(=O)NCc2ccccc2)cc1)c1ccc(F)cc1Cl [Example 18, N^4-benzyl-N^5-{4-[(2-chloro-4-fluorobenzoyl)amino]phenyl}-1H-imidazole-4,5-dicarboxamide] | 6.38 | 6.38 | –
9 | CC(NC(=O)c1ncoc1C(=O)Nc1ccc(NC(=O)c2ccc(F)cc2Cl)cc1)c1ccccc1 (centres unmarked) [Example 8, N^5-{4-[(2-chloro-4-fluorobenzoyl)amino]phenyl}-N^4-(1-phenylethyl)-1,3-oxazole-4,5-dicarboxamide] | 5.64 | 5.64 | –
10 | CNC(=O)c1nc[nH]c1C(=O)Nc1ccc(NC(=O)c2ccc(N(C)C)cc2Cl)cc1 [Example 4, N^5-(4-{[2-chloro-4-(dimethylamino)benzoyl]amino}phenyl)-N^4-methyl-1H-imidazole-4,5-dicarboxamide] | 6.92 | 6.92 | –
11 | CC1CCCN(CCNC(=O)c2[nH]cnc2C(=O)Nc2ccc(NC(=O)c3ccc(F)cc3Cl)cc2)C1 (centres unmarked) [Example 208, N^4-{4-[(2-chloro-4-fluorobenzoyl)amino]phenyl}-N^5-[2-(3-methylpiperidin-1-yl)ethyl]-1H-imidazole-4,5-dicarboxamide] | – | – | 7.40
12 | CNC(=O)c1[nH]cnc1C(=O)Nc1ccc(NC(=O)c2cc(Cl)sc2Cl)cc1 [Example 213, N^4-(4-{[(2,5-dichloro-3-thienyl)carbonyl]amino}phenyl)-N^5-methyl-1H-imidazole-4,5-dicarboxamide] | < 4.00 | – | –
13 | CNC(=O)c1nc[nH]c1C(=O)Nc1ccc(NC(=O)c2cc(F)c(F)cc2Cl)cc1 [Example 242, N^5-{4-[(2-chloro-4,5-difluorobenzoyl)amino]phenyl}-N^4-methyl-1H-imidazole-4,5-dicarboxamide] | – | – | 6.42
14 | CC(C)NC(=O)c1ncoc1C(=O)Nc1ccc(NC(=O)c2ccc(F)cc2Cl)cc1 [Example 15, N^5-{4-[(2-chloro-4-fluorobenzoyl)amino]phenyl}-N^4-isopropyl-1,3-oxazole-4,5-dicarboxamide] | 6.05 | 6.05 | –
15 | CNC(=O)c1ncoc1C(=O)Nc1ccc(NC(=O)c2ccc(F)cc2Cl)cc1 [Example 11, N^5-{4-[(2-chloro-4-fluorobenzoyl)amino]phenyl}-N^4-methyl-1,3-oxazole-4,5-dicarboxamide] | 6.66 | – | –
16 | CNC(=O)c1nc[nH]c1C(=O)Nc1ccc(NC(=O)c2ccc(OCCN(C)C)cc2Cl)cc1 [Example 25, N^5-[4-({2-chloro-4-[2-(dimethylamino)ethoxy]benzoyl}amino)phenyl]-N^4-methyl-1H-imidazole-4,5-dicarboxamide] | 7.15 | 7.15 | –
17 | CNC(=O)c1nc[nH]c1C(=O)Nc1ccc(NC(=O)c2ccc(F)cc2Cl)c(C)c1 [Example 5, N^5-{4-[(2-chloro-4-fluorobenzoyl)amino]-3-methylphenyl}-N^4-methyl-1H-imidazole-4,5-dicarboxamide] | 6.49 | 6.49 | –
18 | COCCNC(=O)c1[nH]cnc1C(=O)Nc1ccc(NC(=O)c2ccc(F)cc2Cl)cc1 [Example 130, N^4-{4-[(2-chloro-4-fluorobenzoyl)amino]phenyl}-N^5-(2-methoxyethyl)-1H-imidazole-4,5-dicarboxamide] | – | – | 6.82
19 | CNC(=O)c1nc[nH]c1C(=O)Nc1ccc(NC(=O)c2ccc(C)cc2Cl)cc1 [Example 244, N^5-{4-[(2-chloro-4-methylbenzoyl)amino]phenyl}-N^4-methyl-1H-imidazole-4,5-dicarboxamide] | – | – | 6.82
20 | O=C(Nc1ccc(NC(=O)c2nc[nH]c2C(=O)NC2CCOC2)cc1)c1ccc(F)cc1Cl (centres unmarked) [Example 236, N^4-{4-[(2-chloro-4-fluorobenzoyl)amino]phenyl}-N^5-(tetrahydrofuran-3-yl)-1H-imidazole-4,5-dicarboxamide] | – | – | 6.37
21 | CC1CCN(CCNC(=O)c2nc[nH]c2C(=O)Nc2ccc(NC(=O)c3ccc(F)cc3Cl)cc2)CC1 [Example 126, N^5-{4-[(2-chloro-4-fluorobenzoyl)amino]phenyl}-N^4-[2-(4-methylpiperidin-1-yl)ethyl]-1H-imidazole-4,5-dicarboxamide] | – | – | 8.70
22 | O=C(Nc1ccc(NC(=O)c2nc[nH]c2C(=O)NCCN2CCCC(F)C2)cc1)c1ccc(F)cc1Cl (centres unmarked) [Example 226, N^4-{4-[(2-chloro-4-fluorobenzoyl)amino]phenyl}-N^5-[2-(3-fluoropiperidin-1-yl)ethyl]-1H-imidazole-4,5-dicarboxamide] | – | – | 7.40
23 | O=C(Nc1ccc(NC(=O)c2nc[nH]c2C(=O)NCCN2CCCCC2)cc1)c1ccc(F)cc1Br [Example 216, N^4-{4-[(2-bromo-4-fluorobenzoyl)amino]phenyl}-N^5-[2-(piperidin-1-yl)ethyl]-1H-imidazole-4,5-dicarboxamide] | – | – | 8.52
24 | NC(=O)c1nc[nH]c1C(=O)Nc1ccc(NC(=O)c2ccc(F)cc2Cl)cc1 [Example 121] | – | – | < 6.30
